The source of these data is patent US6096293A, “Antiplaque oral composition and method” (priority 1999, dated 2000).

Assay [1] has as its system A. naeslundii. To be noted: Evans 1977; cited from earlier work.
Assay [2] concerns S. mutans. To be noted: Evans 1977; cited from earlier work.
Assay [3] has as its system A. viscosus. To be noted: Evans 1977; cited from earlier work.
In assay [4] the test system is S. sanguis. To be noted: Evans 1977; cited from earlier work.
Assay [5] relates to A. viscosus, A. naeslundii, S. mutans and S. sanguis. To be noted: Evans 1977; cited from earlier work.
The test system of assay [6] is S. sanguis. As to the kind of experiment: Minimum Inhibitory Concentration (MIC), neat AA solutions in ethanol. To be noted: for MIC: neat solution in 98.5% ethanol. The format is cell-based. The source says:
(§1) The smaller the MIC, the greater the antibacterial activity of the AA being tested. This MIC test is also described in U.S. Pat. No. 5,275,805 at column 11, lines 54-68, which description is herewith incorporated herein.

The test system of assay [7] is A. viscosus. The assay is described as above. The format is cell-based. To be noted: for MIC: neat solution in 98.5% ethanol.
Excerpt: as §1

Assay [8] has as its system S. mutans. Described as above. To be noted: for MIC: neat solution in 98.5% ethanol. The assay is classed as cell-based.
Excerpt: as §1

Assay [9] relates to bacteria. To be noted: background statement; cited from earlier work.
Assay [10] relates to B. typhosus and Staph. aureus. To be noted: v. B. typhosus and Staph. aureus; Suter 1941; cited from earlier work.
Assay [11] relates to bacteria. Briefly: Antimicrobial activity in general (comparison with thymol / triclosan, effect of substitution). The assay is classed as cell-based.

`O=C(Nc1ccc(Br)cc1)c1cc(Br)cc(Br)c1O` [3,5,4'-tribromo-salicylanilide]: the “effect on growth and plaque formation” value is “effective against growth and plaque formation” in assay [1]; “effective against growth and plaque formation” in assay [2]; “effective against growth and plaque formation” in [3]; “effective against growth and plaque formation” in assay [4].

Regarding `O=S(=O)([O-])c1ccc(O)cc1.O=S(=O)([O-])c1ccc(O)cc1.[Zn+2]` [zinc phenolsulfonate], the “inhibition of in vitro growth or plaque formation” value (shortened to “inhibition”) in [5] was “did not inhibit in vitro growth or plaque formation”.

For `Cc1ccc(C(C)C)c(O)c1` [Thymol, 2-isopropyl-5-methylphenol], the “inhibition” value in assay [5] is given as “did not inhibit in vitro growth or plaque formation”. The MIC stood at 15.60 ppm in [6], 15.60 ppm in assay [7] and 31.25 ppm in assay [8]. The “antimicrobial activity relative to triclosan (background)” value in [9] was “only a small fraction of the activity of triclosan”.

Turning to tert.butylphenol, the phenol coefficient result in [10] is on record as “about 20”.

Consider phenylphenol, for which the “inhibition” value in [5] was “did not inhibit in vitro growth or plaque formation”.

Regarding `CCC(C)c1ccc(O)cc1` (centres unmarked) [p-sec-butyl phenol], in assay [10], the phenol coefficient is listed as 28.

For the compound `O=C(C(=O)c1cc(Br)ccc1O)c1cc(Br)ccc1O` [Dibromsalicil], the “effect on growth and plaque formation” value in assay [3] is listed as “effective against A. viscosus”.

Regarding `CC(C)(C)c1ccc(O)c(C(C)(C)C)c1` [2,4-di-t-butylphenol], in assay [11] (MIC test of Example 5, A. viscosus, S. sanguis, S. mutans), the “activity relative to thymol” value was “many times superior to thymol”. Also, the “activity relative to triclosan” value in assay [6] (MIC test of Example 5) is reported as “somewhat less active than triclosan”; in [7] (MIC test of Example 5), “somewhat less active than triclosan”; in assay [8] (MIC test of Example 5), “significantly superior to triclosan”. In addition, the figures for the MIC in assay [6], in assay [7] and in assay [8] were 1.95 ppm, 1.95 ppm and 0.98 ppm, respectively.

Turning to `Oc1cc(Cl)ccc1Oc1ccc(Cl)cc1Cl` [Triclosan], the “activity compared to thymol” value in assay [11] (AA's of the Tables, "10 to 100 or more times") is listed as around 100 times. For the same compound, the MIC amounted to 0.98 ppm in assay [6], 0.50 ppm in assay [7] and 1.95 ppm in assay [8].

Take `CCC(C)c1ccccc1O` (centres unmarked) [o-sec-butyl phenol]: the phenol coefficient in assay [10] is given as 28.
